US7282504B2, “Kinase inhibitors” (Amgen Inc., priority 2000, dated 2007)

What was measured:
Type in all cases: biochemical
Akt3-1 = molecular target: T1, Akt3-1 (Homo sapiens, UniProt Q9Y243); assay: Kinase inhibition, 33P transfer to plate-bound substrate: Akt3-1
T1 construct: Kinases are expressed as either kinase domains or full-length constructs; made in house
Excerpt: (§1) The inhibitor compounds described herein are screened in the following manner. Kinases suitable for use in the following protocol to determine kinase activity of the compounds described herein include, but are not limited to: Lck, Lyn, Src, Fyn, Syk, Zap-70, Itk, Tec, Btk, EGFR, ErbB2, Kdr, Flt-1, Flt-3, Tek, c-Met, InsR, and AKT.
(§2) Kinases are expressed as either kinase domains or full-length constructs fused to glutathione S-transferase (GST) or polyHistidine tagged fusion proteins in either E. coli or Baculovirus-High Five expression systems. They are purified to near homogeneity by affinity chromatography essentially as previously described (Lehr et al., 1996; Gish et al., 1995). In some instances, kinases are co-expressed or mixed with purified or partially purified regulatory polypeptides prior to measurement of activity.
(§3) Kinase activity and inhibition are measured essentially by established protocols (Braunwalder et al., 1996). Briefly, The transfer of ^33PO4 from ATP to the synthetic substrates poly(Glu, Tyr) 4:1 or poly(Arg, Ser) 3:1 attached to the bioactive surface of microtiter plates serves as the basis to evaluate enzyme activity. After an incubation period, the amount of phosphate transferred is measured by first washing the plate with 0.5% phosphoric acid, adding liquid scintillant, and then counting in a liquid scintillation detector. The IC50 is determined by the concentration of compound that causes a 50% reduction in the amount of ^33P incorporated onto the substrate bound to the plate.

EGFR-1 = molecular target: T2, EGFR-1 (Homo sapiens, UniProt P00533); assay: Kinase inhibition, 33P transfer to plate-bound substrate: EGFR-1
T2 construct: Kinases are expressed as either kinase domains or full-length constructs; made in house
Excerpt: as §1, §2, §3

ErbB2-1 = molecular target: T3, ErbB2-1 (Homo sapiens, UniProt P04626); assay: Kinase inhibition, 33P transfer to plate-bound substrate: ErbB2-1
T3 construct: Kinases are expressed as either kinase domains or full-length constructs; made in house
T3 sequence (P04626 23-1255): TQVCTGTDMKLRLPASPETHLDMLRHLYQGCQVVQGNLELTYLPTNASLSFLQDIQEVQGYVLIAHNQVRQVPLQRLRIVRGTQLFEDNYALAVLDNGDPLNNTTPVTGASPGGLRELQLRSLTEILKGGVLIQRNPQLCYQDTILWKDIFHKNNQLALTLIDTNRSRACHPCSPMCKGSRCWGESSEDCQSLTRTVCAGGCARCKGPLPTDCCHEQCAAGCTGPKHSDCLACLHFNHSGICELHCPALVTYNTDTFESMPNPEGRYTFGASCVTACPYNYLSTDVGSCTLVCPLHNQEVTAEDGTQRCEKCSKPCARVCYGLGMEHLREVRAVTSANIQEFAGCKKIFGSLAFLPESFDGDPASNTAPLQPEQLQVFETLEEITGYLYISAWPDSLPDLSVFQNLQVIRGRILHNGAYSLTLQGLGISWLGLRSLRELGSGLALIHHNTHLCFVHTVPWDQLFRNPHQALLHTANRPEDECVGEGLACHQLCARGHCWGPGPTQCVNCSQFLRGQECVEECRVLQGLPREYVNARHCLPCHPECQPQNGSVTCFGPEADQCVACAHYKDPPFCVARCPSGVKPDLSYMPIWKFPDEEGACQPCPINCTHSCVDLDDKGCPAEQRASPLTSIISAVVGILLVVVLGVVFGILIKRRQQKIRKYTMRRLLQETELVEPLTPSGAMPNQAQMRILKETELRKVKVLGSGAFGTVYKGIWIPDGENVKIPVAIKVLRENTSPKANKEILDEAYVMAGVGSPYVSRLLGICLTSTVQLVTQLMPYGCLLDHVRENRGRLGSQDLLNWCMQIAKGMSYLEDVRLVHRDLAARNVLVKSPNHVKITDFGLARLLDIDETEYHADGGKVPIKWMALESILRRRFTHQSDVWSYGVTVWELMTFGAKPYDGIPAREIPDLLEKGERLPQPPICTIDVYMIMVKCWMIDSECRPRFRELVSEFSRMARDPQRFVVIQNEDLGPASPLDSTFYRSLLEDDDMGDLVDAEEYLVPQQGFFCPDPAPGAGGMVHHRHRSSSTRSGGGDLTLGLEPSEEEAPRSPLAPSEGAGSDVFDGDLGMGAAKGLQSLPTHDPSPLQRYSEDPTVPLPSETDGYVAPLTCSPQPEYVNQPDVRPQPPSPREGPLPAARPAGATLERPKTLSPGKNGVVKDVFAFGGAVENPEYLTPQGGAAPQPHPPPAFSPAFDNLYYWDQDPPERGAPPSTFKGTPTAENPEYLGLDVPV
Excerpt: as §1, §2, §3

ErbB4-1 = molecular target: T4, ErbB4-1 (Homo sapiens, UniProt Q15303); assay: Kinase inhibition, 33P transfer to plate-bound substrate: ErbB4-1
T4 construct: Kinases are expressed as either kinase domains or full-length constructs; made in house
T4 sequence (Q15303 26-1308): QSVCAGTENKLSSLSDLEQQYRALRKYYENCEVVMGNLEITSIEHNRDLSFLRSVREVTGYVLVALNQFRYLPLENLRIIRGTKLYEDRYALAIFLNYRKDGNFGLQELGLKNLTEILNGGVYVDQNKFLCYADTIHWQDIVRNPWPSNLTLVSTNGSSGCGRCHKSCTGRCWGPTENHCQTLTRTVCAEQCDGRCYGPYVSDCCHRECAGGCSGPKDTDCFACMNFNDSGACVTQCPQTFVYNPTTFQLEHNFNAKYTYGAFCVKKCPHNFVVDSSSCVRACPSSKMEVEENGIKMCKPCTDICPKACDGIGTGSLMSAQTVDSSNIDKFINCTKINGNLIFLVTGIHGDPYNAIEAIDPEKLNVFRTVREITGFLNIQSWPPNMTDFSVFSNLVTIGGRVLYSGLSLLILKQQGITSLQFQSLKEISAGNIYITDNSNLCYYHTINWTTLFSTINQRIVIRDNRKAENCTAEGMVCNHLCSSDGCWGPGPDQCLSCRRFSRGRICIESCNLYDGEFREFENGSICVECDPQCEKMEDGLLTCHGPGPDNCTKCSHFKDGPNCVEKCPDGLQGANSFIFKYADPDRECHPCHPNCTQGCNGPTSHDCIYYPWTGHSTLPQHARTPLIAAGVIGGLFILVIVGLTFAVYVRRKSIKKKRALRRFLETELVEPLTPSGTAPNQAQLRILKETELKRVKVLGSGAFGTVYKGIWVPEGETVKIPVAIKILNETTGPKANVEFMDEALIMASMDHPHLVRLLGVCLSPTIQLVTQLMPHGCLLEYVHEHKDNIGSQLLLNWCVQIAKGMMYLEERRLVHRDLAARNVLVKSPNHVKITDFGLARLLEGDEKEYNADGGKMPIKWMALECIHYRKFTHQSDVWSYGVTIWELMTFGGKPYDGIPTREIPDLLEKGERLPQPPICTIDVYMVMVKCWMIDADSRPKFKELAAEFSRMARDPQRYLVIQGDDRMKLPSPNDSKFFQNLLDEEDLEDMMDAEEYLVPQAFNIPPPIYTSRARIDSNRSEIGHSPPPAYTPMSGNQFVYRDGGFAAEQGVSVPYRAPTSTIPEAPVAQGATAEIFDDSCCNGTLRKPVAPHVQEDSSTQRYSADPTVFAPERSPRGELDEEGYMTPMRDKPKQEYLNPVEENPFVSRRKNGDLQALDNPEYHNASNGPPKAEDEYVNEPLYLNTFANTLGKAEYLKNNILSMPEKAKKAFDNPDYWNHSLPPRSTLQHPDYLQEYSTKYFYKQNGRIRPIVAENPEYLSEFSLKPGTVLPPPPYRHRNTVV
Excerpt: as §1, §2, §3

FGFR1-1 = molecular target: T5, FGFR1-1 (Homo sapiens, UniProt P11362); assay: Kinase inhibition, 33P transfer to plate-bound substrate: FGFR1-1
T5 construct: Kinases are expressed as either kinase domains or full-length constructs; made in house
Excerpt: as §1, §2, §3

Flt1-1 = molecular target: T6, Flt1-1 (Homo sapiens, UniProt P17948); assay: Kinase inhibition, 33P transfer to plate-bound substrate: Flt1-1
T6 construct: Kinases are expressed as either kinase domains or full-length constructs; made in house
Excerpt: as §1, §2, §3

Fyn-1 = molecular target: T7, Fyn-1 (Homo sapiens, UniProt P06241); assay: Kinase inhibition, 33P transfer to plate-bound substrate: Fyn-1
T7 construct: Kinases are expressed as either kinase domains or full-length constructs; made in house
Excerpt: as §1, §2, §3

Hck-1 = molecular target: T8, Hck-1 (Homo sapiens, UniProt P08631); assay: Kinase inhibition, 33P transfer to plate-bound substrate: Hck-1
T8 construct: Kinases are expressed as either kinase domains or full-length constructs; made in house
T8 sequence (P08631 whole entry, the tested form may be a part): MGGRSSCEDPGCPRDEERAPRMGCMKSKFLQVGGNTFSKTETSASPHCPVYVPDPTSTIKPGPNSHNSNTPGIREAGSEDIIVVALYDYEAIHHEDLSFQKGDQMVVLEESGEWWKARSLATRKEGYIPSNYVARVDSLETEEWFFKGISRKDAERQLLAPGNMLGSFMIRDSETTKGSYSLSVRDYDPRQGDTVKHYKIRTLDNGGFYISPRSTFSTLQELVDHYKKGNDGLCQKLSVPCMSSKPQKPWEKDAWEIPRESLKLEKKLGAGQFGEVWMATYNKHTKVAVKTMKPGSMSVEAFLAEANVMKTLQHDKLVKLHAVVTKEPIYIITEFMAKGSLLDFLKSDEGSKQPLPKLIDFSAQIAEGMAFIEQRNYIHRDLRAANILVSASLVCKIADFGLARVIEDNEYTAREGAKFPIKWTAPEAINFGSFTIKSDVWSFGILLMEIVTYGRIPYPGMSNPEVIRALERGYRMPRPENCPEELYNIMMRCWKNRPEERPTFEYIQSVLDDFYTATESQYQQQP
Excerpt: as §1, §2
as §3, with “The IC50 is determined by the concentration of compound that causes a 50% reduction in the amount of ^33P incorporated onto the substrate bound to the plate.” left out

IGFR-1 = molecular target: T9, IGFR-1 (Homo sapiens, UniProt P08069); assay: Kinase inhibition, 33P transfer to plate-bound substrate: IGFR-1
T9 construct: Kinases are expressed as either kinase domains or full-length constructs; made in house
Excerpt: as §1, §2, §3

InsR-1 = molecular target: T10, InsR-1 (Homo sapiens, UniProt P06213); assay: Kinase inhibition, 33P transfer to plate-bound substrate: InsR-1
T10 construct: Kinases are expressed as either kinase domains or full-length constructs; made in house
Excerpt: as §1, §2, §3

Itk-1 = molecular target: T11, Itk-1 (Homo sapiens, UniProt Q08881); assay: Kinase inhibition, 33P transfer to plate-bound substrate: Itk-1
T11 construct: Kinases are expressed as either kinase domains or full-length constructs; made in house
T11 sequence (Q08881 1-620): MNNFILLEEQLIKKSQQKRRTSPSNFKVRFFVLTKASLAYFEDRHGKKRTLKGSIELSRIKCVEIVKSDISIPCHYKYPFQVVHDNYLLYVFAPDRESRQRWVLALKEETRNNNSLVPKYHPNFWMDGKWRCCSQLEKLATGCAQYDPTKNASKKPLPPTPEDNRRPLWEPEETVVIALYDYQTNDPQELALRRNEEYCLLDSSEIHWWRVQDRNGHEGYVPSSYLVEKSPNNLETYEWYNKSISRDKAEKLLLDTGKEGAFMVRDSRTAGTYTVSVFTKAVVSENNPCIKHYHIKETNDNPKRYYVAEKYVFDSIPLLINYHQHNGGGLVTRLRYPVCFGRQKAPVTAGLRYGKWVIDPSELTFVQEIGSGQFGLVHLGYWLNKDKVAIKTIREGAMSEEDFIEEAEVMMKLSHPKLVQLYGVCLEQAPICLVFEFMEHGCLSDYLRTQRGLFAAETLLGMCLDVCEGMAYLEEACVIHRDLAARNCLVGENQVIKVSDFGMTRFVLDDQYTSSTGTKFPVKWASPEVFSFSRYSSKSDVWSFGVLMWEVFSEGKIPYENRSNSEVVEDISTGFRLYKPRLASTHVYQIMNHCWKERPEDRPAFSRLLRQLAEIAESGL
Excerpt: as §1, §2, §3

KDR-1 = molecular target: T12, KDR-1 (Homo sapiens, UniProt P35968); assay: Kinase inhibition, 33P transfer to plate-bound substrate: KDR-1
T12 construct: Kinases are expressed as either kinase domains or full-length constructs; made in house
Excerpt: as §1, §2, §3

Lck-1 = molecular target: T13, Lck-1 (Homo sapiens, UniProt P06239); assay: Kinase inhibition, 33P transfer to plate-bound substrate: Lck-1
T13 construct: Kinases are expressed as either kinase domains or full-length constructs; made in house
Excerpt: as §1, §2, §3

Lck-2 = molecular target: T14, Lck-2 (Homo sapiens, UniProt P06239); assay: Kinase inhibition, 33P transfer to plate-bound substrate: Lck-2
T14 construct: Kinases are expressed as either kinase domains or full-length constructs; made in house
Excerpt: as §1, §2, §3

Lyn-1 = molecular target: T15, Lyn-1 (Homo sapiens, UniProt P07948); assay: Kinase inhibition, 33P transfer to plate-bound substrate: Lyn-1
T15 construct: Kinases are expressed as either kinase domains or full-length constructs; made in house
T15 sequence (P07948 whole entry, the tested form may be a part): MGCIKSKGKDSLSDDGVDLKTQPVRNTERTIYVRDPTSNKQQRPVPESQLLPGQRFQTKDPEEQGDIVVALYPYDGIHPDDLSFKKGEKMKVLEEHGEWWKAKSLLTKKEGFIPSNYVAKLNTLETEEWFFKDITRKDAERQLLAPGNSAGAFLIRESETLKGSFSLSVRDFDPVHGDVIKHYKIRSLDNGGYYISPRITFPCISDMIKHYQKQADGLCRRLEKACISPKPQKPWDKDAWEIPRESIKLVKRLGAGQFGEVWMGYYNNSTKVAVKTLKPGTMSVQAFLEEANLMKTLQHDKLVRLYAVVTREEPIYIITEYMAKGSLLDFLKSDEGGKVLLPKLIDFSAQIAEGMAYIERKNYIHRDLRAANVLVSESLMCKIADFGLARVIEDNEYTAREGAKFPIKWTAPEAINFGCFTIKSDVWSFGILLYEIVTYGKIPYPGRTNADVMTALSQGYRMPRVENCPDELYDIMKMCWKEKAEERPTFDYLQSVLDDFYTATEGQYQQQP
Excerpt: as §1, §2, §3

Met-1 = molecular target: T16, Met-1 (Homo sapiens, UniProt P08581); assay: Kinase inhibition, 33P transfer to plate-bound substrate: Met-1
T16 construct: Kinases are expressed as either kinase domains or full-length constructs; made in house
T16 sequence (P08581 25-1390): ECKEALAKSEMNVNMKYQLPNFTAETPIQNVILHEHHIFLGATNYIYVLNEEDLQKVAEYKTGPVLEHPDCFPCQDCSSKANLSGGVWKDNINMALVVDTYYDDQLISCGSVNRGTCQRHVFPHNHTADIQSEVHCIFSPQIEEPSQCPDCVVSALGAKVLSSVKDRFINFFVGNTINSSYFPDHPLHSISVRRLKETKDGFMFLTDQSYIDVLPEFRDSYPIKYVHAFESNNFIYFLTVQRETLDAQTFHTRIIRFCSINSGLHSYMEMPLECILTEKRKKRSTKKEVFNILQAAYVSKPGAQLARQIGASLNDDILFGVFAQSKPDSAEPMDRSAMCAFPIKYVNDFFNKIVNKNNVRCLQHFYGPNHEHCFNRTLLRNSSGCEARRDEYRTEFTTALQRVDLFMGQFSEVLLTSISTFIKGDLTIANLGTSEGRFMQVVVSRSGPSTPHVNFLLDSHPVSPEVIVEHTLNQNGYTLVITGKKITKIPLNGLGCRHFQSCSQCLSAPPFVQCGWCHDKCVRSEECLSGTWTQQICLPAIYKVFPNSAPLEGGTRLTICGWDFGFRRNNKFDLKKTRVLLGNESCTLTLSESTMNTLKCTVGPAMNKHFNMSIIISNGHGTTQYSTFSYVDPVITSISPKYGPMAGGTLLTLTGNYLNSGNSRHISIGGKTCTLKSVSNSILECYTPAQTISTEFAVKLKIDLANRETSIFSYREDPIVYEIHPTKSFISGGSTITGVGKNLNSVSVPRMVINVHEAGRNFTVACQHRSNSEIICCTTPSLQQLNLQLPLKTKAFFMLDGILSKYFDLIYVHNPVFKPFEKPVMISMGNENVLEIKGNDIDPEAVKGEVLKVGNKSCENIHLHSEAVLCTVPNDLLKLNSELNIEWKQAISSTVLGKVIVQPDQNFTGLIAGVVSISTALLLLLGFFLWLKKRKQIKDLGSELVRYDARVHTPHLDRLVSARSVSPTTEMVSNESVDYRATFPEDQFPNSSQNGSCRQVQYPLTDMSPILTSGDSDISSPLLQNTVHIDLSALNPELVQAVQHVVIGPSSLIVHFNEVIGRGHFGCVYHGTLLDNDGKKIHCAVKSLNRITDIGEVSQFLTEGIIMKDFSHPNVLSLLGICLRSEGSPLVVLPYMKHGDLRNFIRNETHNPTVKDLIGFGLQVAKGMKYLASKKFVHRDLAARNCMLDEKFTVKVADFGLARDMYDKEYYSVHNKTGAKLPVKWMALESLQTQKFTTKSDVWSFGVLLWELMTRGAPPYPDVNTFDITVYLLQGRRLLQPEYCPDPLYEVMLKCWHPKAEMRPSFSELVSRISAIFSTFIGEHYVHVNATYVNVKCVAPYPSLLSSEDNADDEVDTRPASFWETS
Excerpt: as §1, §2, §3

PDGFRB = molecular target: T17, PDGFRB (Homo sapiens, UniProt P09619); assay: Kinase inhibition, 33P transfer to plate-bound substrate: PDGFRB
T17 construct: Kinases are expressed as either kinase domains or full-length constructs; made in house
Excerpt: as §1, §2, §3

Ret-1 = molecular target: T18, Ret-1 (Homo sapiens, UniProt P07949); assay: Kinase inhibition, 33P transfer to plate-bound substrate: Ret-1
T18 construct: Kinases are expressed as either kinase domains or full-length constructs; made in house
Excerpt: as §1, §2, §3

Src-1 = molecular target: T19, Src-1 (Homo sapiens, UniProt P12931); assay: Kinase inhibition, 33P transfer to plate-bound substrate: Src-1
T19 construct: Kinases are expressed as either kinase domains or full-length constructs; made in house
Excerpt: as §1, §2, §3

Tek-1 = molecular target: T20, Tek-1 (Homo sapiens, UniProt Q02763); assay: Kinase inhibition, 33P transfer to plate-bound substrate: Tek-1
T20 construct: Kinases are expressed as either kinase domains or full-length constructs; made in house
Excerpt: as §1, §2, §3

Zap-1 = molecular target: T21, Zap-1 (Homo sapiens, UniProt P43403); assay: Kinase inhibition, 33P transfer to plate-bound substrate: Zap-1
T21 construct: Kinases are expressed as either kinase domains or full-length constructs; made in house
T21 sequence (P43403 1-619): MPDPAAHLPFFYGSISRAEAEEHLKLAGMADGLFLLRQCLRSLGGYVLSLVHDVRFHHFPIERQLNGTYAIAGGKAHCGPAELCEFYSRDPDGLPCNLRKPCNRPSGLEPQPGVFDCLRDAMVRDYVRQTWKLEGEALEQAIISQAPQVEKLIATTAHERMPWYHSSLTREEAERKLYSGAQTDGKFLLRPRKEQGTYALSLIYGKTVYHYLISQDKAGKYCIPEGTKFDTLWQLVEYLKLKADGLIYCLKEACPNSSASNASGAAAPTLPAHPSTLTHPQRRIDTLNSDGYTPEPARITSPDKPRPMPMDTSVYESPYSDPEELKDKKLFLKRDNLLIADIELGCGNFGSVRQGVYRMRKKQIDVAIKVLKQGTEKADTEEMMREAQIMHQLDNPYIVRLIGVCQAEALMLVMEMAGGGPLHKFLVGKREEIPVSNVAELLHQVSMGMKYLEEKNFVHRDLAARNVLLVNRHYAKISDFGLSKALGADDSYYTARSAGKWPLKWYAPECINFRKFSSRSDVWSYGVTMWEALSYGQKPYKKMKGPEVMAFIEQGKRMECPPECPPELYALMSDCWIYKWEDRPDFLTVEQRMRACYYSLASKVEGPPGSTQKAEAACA
Excerpt: as §1, §2, §3

`COc1cc(Nc2nccc(-n3c(=O)[nH]c4ccccc43)n2)cc(OC)c1OC` [Compound 3] was tested, and the IC50 (Akt3-1) was at least 10 µM, the IC50 (EGFR-1) was at least 10 µM and the IC50 (ErbB2-1) was at least 10 µM. For the same compound, the IC50 (ErbB4-1) was at least 10 µM, the IC50 (FGFR1-1) was under 1.5 µM and the IC50 (Flt1-1) was under 1.5 µM. It also gave an IC50 (Fyn-1) of 5 to 10 µM, an IC50 (Hck-1) of at least 10 µM and an IC50 (IGFR-1) of under 1.5 µM. The IC50 (InsR-1) was 1.5 to 5 µM, the IC50 (Itk-1) was at least 10 µM and the IC50 (KDR-1) was under 1.5 µM. It also gave an IC50 (Lck-1) of 1.5 to 5 µM, an IC50 (Lck-2) of 1.5 to 5 µM and an IC50 (Lyn-1) of 1.5 to 5 µM. It also gave an IC50 (Met-1) of 1.5 to 5 µM, an IC50 (PDGFRB) of under 1.5 µM and an IC50 (Ret-1) of under 1.5 µM. For the same compound, the IC50 (Src-1) was 5 to 10 µM, the IC50 (Tek-1) was 5 to 10 µM and the IC50 (Zap-1) was 1.5 to 5 µM.
